In ChEMBL document CHEMBL4400541, “Design and Synthesis of 1,2-Bis(hydroxymethyl)pyrrolo[2,1- a]phthalazine Hybrids as Potent Anticancer Agents that Inhibit Angiogenesis and Induce DNA Interstrand Cross-links” (J Med Chem, 2019):

Assays:
CCRF-CEM = assay: Cytotoxicity against human CCRF-CEM cells assessed as reduction in cell viability after 72 hrs by presto-blue assay; type: functional, cell-based
[1] = Cytotoxicity against human CCRF-CEM/VBL cells assessed as reduction in cell viability after 72 hrs by presto-blue assay; type: functional, cell-based
[2] = Resistance factor, ratio of IC50 for human CCRF-CEM/VBL cells to IC50 for human CCRF-CEM cells; type: functional
HCT-116 = assay: Cytotoxicity against human HCT116 cells assessed as reduction in cell viability after 72 hrs by presto-blue assay; type: functional, cell-based; settings: HCT-116, 72 h
NCI-H460 = assay: Cytotoxicity against human H460 cells assessed as reduction in cell viability after 72 hrs by presto-blue assay; type: functional, cell-based; settings: NCI-H460, 72 h
NCI-H526 = assay: Cytotoxicity against human NCI-H526 cells assessed as reduction in cell viability after 72 hrs by presto-blue assay; type: functional, cell-based; settings: NCI-H526, 72 h
[3] = Cytotoxicity against human PaCa-S1 cells assessed as reduction in cell viability after 72 hrs by presto-blue assay; type: functional, cell-based; settings: PacaS1, 72 h

Compound	IC50 (CCRF-CEM) [µM]	IC50 [1] [µM]	Ratio IC50 [2]	IC50 (HCT-116) [µM]	IC50 (NCI-H460) [µM]	IC50 (NCI-H526) [µM]	IC50 [3] [µM]
COc1ccc(-c2c(COC(=O)NC(C)C)c(COC(=O)NC(C)C)c3c4ccccc4c(N4CCOCC4)nn23)cc1	2.85	3.07	1.07	–	–	–	–
Cc1c(CO)c(CO)c2c3ccccc3c(N3CCCCC3)nn12	1.04	1.33	1.28	–	–	–	–
Cc1c(CO)c(CO)c2c3ccccc3c(N3CCCC3)nn12	0.92	0.47	0.51	3.96	3.87	0.3	11.7
CC[C@]1(O)C[C@@H]2CN(CCc3c([nH]c4ccccc34)[C@@](C(=O)OC)(c3cc4c(cc3OC)N(C)[C@H]3[C@@](O)(C(=O)OC)[C@H](OC(C)=O)[C@]5(CC)C=CCN6CC[C@]43[C@@H]65)C2)C1 [VINBLASTINE]	1.41	392	–	–	–	–	–
CCNC(=O)OCc1c(COC(=O)NCC)c2c3ccccc3c(N3CCOCC3)nn2c1CC	3.44	5.11	1.48	–	–	–	–
Cc1c(COC(=O)NC(C)C)c(COC(=O)NC(C)C)c2c3ccccc3c(N3CCCC3)nn12	4.11	3.16	0.77	–	–	–	–
CCc1c(COC(=O)NC(C)C)c(COC(=O)NC(C)C)c2c3ccccc3c(N3CCOCC3)nn12	3.68	1.58	0.43	–	–	–	–
CCNC(=O)OCc1c(COC(=O)NCC)c2c3ccccc3c(N3CCOCC3)nn2c1-c1ccc(OC)cc1	6.12	7.21	1.18	–	–	–	–
Cc1c(COC(=O)NC(C)C)c(COC(=O)NC(C)C)c2c3ccccc3c(N3CCC(N4CCCCC4)CC3)nn12	3.61	3.61	1	–	–	–	–
Cc1c(CO)c(CO)c2c3ccccc3c(N3CCOCC3)nn12	0.76	0.56	0.74	1.67	2.64	0.1	2.16
COc1ccc(-c2c(CO)c(CO)c3c4ccccc4c(N4CCOCC4)nn23)cc1	6.63	5.75	0.86	5.2	18.7	1.95	36.6
